Drawing on patent US20220056037A1 (SPV THERAPEUTICS INC., priority 2018, published 2022), this text covers IC50 for one molecule.

What all share (assay): 2D cell proliferation assay (CellTiter-Blue)
What all share (assay type): cell-based

For assay [1], the system named is MAXFLB 147D (ER +). As to conditions: 72 h; cell line MAXFLB 147D (ER +); three days of treatment; read-out: IC (abs. IC50). As for the experimental part:
(§1) Viability of the cells was analyzed by using the CellTiter-Blue® Cell Viability Assay (Promega), and was performed according to manufacturer's instructions. Briefly, cells were harvested from exponential phase cultures (Chapter 6.6), counted and plated in 96-well flat-bottom microtiter plates at a cell density of 4,000-60,000 cells/well in a volume of 140 μl per well. After a 24 hours recovery period, 10 μL cell culture medium (six control wells/plate) or culture medium with test compound were added (Chapter 6.2). The compounds were applied at five concentrations in full-log increments up to 100 μM in duplicate. Cultures were incubated at 37° C. and 5% CO2 in a humidified atmosphere for another three days. After three days of treatment, 20 μl/well CellTiter-Blue® reagent was added. Following incubation with CellTiter-Blue® reagent for up to four hours, fluorescence (FU) was measured by using the Enspire Multimode Plate Reader (excitation λ=570 nm, emission λ=600 nm). For calculations, the mean values of duplicate/sextuplicate (untreated control) data were used.
(§2) Drug effects were expressed in terms of the percentage of the fluorescence signal, obtained by comparison of the mean signal in the treated wells with the mean signal of the untreated controls (expressed by the test-versus-control value, T/C-value [%]):
(§3) IC values are reported as relative IC50 values and absolute IC50 and IC70 values. […] The absolute IC70 value gives the concentration of the test compound that achieves T/C=30%. The relative IC50 value is the concentration of test compound that gives a response half way between the top and bottom plateau of the sigmoidal concentration-response curve (inflection point of the curve). Calculation was done by 4parameter non-linear curve fit (Oncotest Data Warehouse Software).
(§4) If an IC50 or IC70 value could not be determined within the examined dose range (because a compound was either too active or lacked activity), the lowest or highest concentration studied was used for calculation of the geometric mean value.
(§5) The overall potency of a compound was determined by the geometric mean IC50/IC70 values of all individual IC50/IC70 values. In the heatmap representation of IC50 and IC70 values, the distribution of the IC50 or IC70 values obtained for a test compound in the individual cell lines is given in relation to the geometric mean […] or IC70 value, obtained over all PDX models tested. The individual IC values range from 1/32-fold geometric mean IC (corresponding to very potent compound activity or high tumor sensitivity) to 32-fold geometric mean IC (corresponding to lack of compound activity or tumor resistance). The heatmap presentation, therefore, represents an antiproliferative “fingerprint” profile of a test compound.

In assay [2] the test system is MEXF M14. As to conditions: 72 h; cell line MEXF M14; three days of treatment; read-out: IC (abs. IC50). As for the experimental part:
as §1, §2, §3, §4, §5

The test system of assay [3] is LIXAH HLE. As to conditions: 72 h; cell line LIXAH HLE; three days of treatment; read-out: IC (abs. IC50). As for the experimental part:
as §1, §2, §3, §4, §5

The subject of assay [4] is LYXFNH Daudi. As to conditions: Homo sapiens, 72 h; cell line LYXFNH Daudi; three days of treatment; read-out: IC (abs. IC50). Here is the method:
as §1, §2, §3, §4, §5

The subject of assay [5] is LEXFAL MOLT-4. As to conditions: Homo sapiens, 72 h; cell line LEXFAL MOLT-4; three days of treatment; read-out: IC (abs. IC50). Here is the method: as §1, §2, §3, §4, §5
For assay [6], the system named is LXFA NCI-H1975. As to conditions: Homo sapiens, 72 h; cell line LXFA NCI-H1975; three days of treatment; read-out: IC (abs. IC50). As for the experimental part: as §1, §2, §3, §4, §5
Assay [7] deals with PRXF 22Rv1. As to conditions: Homo sapiens, 72 h; cell line PRXF 22Rv1; three days of treatment; read-out: IC (abs. IC50). Here is the method: as §1, §2, §3, §4, §5
The subject of assay [8] is MEXF WM-266-4. As to conditions: Homo sapiens, 72 h; cell line MEXF WM-266-4; three days of treatment; read-out: IC (abs. IC50). As for the experimental part:
as §1, §2, §3, §4, §5

Assay [9] deals with MAXFTN MDA-MB-453. As to conditions: Homo sapiens, 72 h; cell line MAXFTN MDA-MB-453; three days of treatment; read-out: IC (abs. IC50). Here is the method:
as §1, §2, §3, §4, §5

The subject of assay [10] is MAXFHER BT-474. As to conditions: Homo sapiens, 72 h; cell line MAXFHER BT-474; three days of treatment; read-out: IC (abs. IC50). As for the experimental part:
as §1, §2, §3, §4, §5

The test system of assay [11] is CXF HCT-15. As to conditions: Homo sapiens, 72 h; cell line CXF HCT-15; three days of treatment; read-out: IC (abs. IC50). Here is the method: as §1, §2, §3, §4, §5
For assay [12], the system named is LXFL NCI-H1299. As to conditions: Homo sapiens, 72 h; cell line LXFL NCI-H1299; three days of treatment; read-out: IC (abs. IC50). As for the experimental part: as §1, §2, §3, §4, §5
The test system of assay [13] is PRXF LNCaP. As to conditions: Homo sapiens, 72 h; cell line PRXF LNCaP; three days of treatment; read-out: IC (abs. IC50). As for the experimental part: as §1, §2, §3, §4, §5
Assay [14] concerns GXA MKN45. As to conditions: Homo sapiens, MKN-45, 72 h; cell line GXA MKN45; three days of treatment; read-out: IC (abs. IC50). Here is the method: as §1, §2, §3, §4, §5
Assay [15] has as its system CXF COLO 205. As to conditions: Homo sapiens, 72 h; cell line CXF COLO 205; three days of treatment; read-out: IC (abs. IC50). Here is the method: as §1, §2, §3, §4, §5
Assay [16] concerns LXFA A549. As to conditions: Homo sapiens, 72 h; cell line LXFA A549; three days of treatment; read-out: IC (abs. IC50). As for the experimental part: as §1, §2, §3, §4, §5
Assay [17] deals with MAXFTN MDA-MB-231 (ER −). As to conditions: Homo sapiens, 72 h; cell line MAXFTN MDA-MB-231 (ER −); three days of treatment; read-out: IC (abs. IC50). Here is the method:
as §1, §2, §3, §4, §5

Assay [18] concerns LEXFCL MEC-1. As to conditions: Homo sapiens, MEC1, 72 h; cell line LEXFCL MEC-1; three days of treatment; read-out: IC (abs. IC50). Here is the method: as §1, §2, §3, §4, §5

By pIC50 is commonly meant the IC50 on a negative log10 scale, so that one unit is a factor of ten.

pIC50: −log10 of the molar value.

For the molecule `CN1CCN(c2ccc(Nc3ncc4cc(C(=O)N(C)C)n(C56CC(C5)C6)c4n3)cc2)CC1` [SPV113], the pIC50 is 5.46 in [1]; 5.99 in assay [2]; 6.64 in assay [3]; ≥ 8.00 in assay [4]; 6.25 in [5]; 6.91 in [6]. In addition, the pIC50 was ≥ 8.00 in [7]; 5.48 in [8]; 6.75 in [9]; 6.10 in assay [10]; 6.69 in assay [11]; 5.79 in assay [12]. In addition, the pIC50 in [13] was 6.94; in [14] it was 5.97; in assay [15] it was 6.83; in assay [16] it was 5.91; in assay [17], 6.47; in assay [18], ≥ 8.00.
